Measurements taken from patent publication US20250298040A1, “MEASUREMENT OF REACTIVE OXYGEN SPECIES TO ASSESS RED BLOOD CELL QUALITY” (UNIVERSITY OF MARYLAND, BALTIMORE, priority 2022, published 2025).

What was measured:
[1] = CMH oxidation by O2^·− from xanthine oxidase/hypoxanthine, cell-free EPR; settings: 1 mM CMH
Method: (§1) Measurement of CMH oxidation by EPR spectroscopy. All samples for EPR measurement contained 1 mM CMH. Other reagents, when used, were at the following concentrations: xanthine oxidase (XO), 0.03 U/mL; superoxide dismutase (SOD), 5 μM; hypoxanthine (HX), 0.5 mM; hydrogen peroxide (H2O2), 1 mM. Cell-free measurements were made in phosphate-buffered saline (PBS) containing 1 mM diethylenetriaminepentaacetic acid (DTPA). For measurements on RBCs, each sample was made by mixing 2 μL of 50 mM CMH·HCl stock solution with 98 μL of RBC suspension (˜40% hematocrit) in Citrate Phosphate Dextrose Adenine (CPDA-1, Sigma-Aldrich, St. Louis, MO). Time zero (t=0) is the time at which CMH is mixed into the sample. The amplitude (h) of the center peak of the CM· nitroxide EPR spectrum was converted into concentration (C in μM) by using a calibration equation, which for this example was C=(h−0.03308)/0.06461, determined using a series of standard samples.
(§2) Hydroxylamine molecular probe oxidation by O2^·−. The enzyme xanthine oxidase (XO) oxidizes its substrate hypoxanthine and generates O2^·− in the process. […] The first and last EPR spectrum of a representative data set are plotted as the inset at the top left, showing growth of the EPR spectrum as reaction proceeds. Superoxide dismutase (SOD) destroys O2^·− in a rapid enzymatic process, thus preventing it from reacting with CMH. […]

[2] = CMH incubation with hydrogen peroxide, cell-free EPR
Method: as §1, §2

[3] = tested on: RBCs from FVB and B6 mice; assay: CMH oxidation in refrigerator-stored murine RBCs (FVB vs B6), EPR; assay type: cell-based, mouse
Method: as §1
Murine blood collection and storage. Mouse blood collections were approved by the University of Maryland, Baltimore Institutional Animal Care and Use Committee (IACUC) (protocol #0520008). Processed RBCs from two different mouse strains (C57BL/6J or B6 for short, Jackson Laboratory, Barr Harbor, ME and FVB, Charles Rivers, Worcester, MA) were evaluated in this study. Whole blood (approximately 800-1000 μL per mouse) was collected by cardiac puncture using a 21 G×1 inch needle and 1 mL syringe containing Citrate Phosphate Dextrose solution (CPD) from n=15 B6 and n=15 FVB mice. Blood was pooled within the strains in 15 mL falcon tubes and centrifuged at 750×g for 5 minutes. The plasma and buffy coat were removed. Each aliquot was washed 3 times in 5 mL of phosphate-buffered saline containing 10 mM glucose (PBS-G) with gentle swirling for 3 minutes followed by centrifugation at 750×g for 5 minutes. After the final wash, PBS-G was removed and CPDA-1 (840 μL, 14% of the total volume) was added to RBCs (approximately 6 mL of packed RBCs). Hematocrits were approximately 70% across storage tubes. Finally, preparations were split into 12 equal volumes (500 μL) and stored in 1.7 mL Eppendorf tubes (n=3 per mouse strain per time point) in a refrigerator at 4-6° C. Measurements were made on day 1 (immediately after processing) and then on days 2, 4 and 8 after processing such that measurements were made from independent tubes and not a single pooled blood tube.
Data analysis and presentation. Least-squares curve fitting and statistical analysis were performed using OriginPro software (OriginLab Corp., Northampton, MA). […] Difference between the two strains on the same day was assessed by t-test; within-strain differences over multiple days of storage were assessed through ANOVA.

human RBCs = assay: CMH oxidation in human RBCs stored under normoxic vs hypoxic conditions, EPR; assay type: cell-based; settings: entire duration of storage, p<9.31×10^−4
Method: as §1
Distinguishing between normoxic and hypoxic storage conditions. Hydroxylamine molecular probe, e.g., CMH, measurements can be used to distinguish human RBCs stored under normoxic and hypoxic conditions, as shown in FIG. 3B. Duplicate samples of human RBCs were stored 1) under normoxic conditions (equilibrated with air), and 2) under hypoxic conditions (equilibrated with low-oxygen atmosphere) and tested periodically with CMH. […]

[4] = tested on: RBCs from healthy donors and donors with sickle-cell disease; assay: CMH oxidation in RBCs from healthy donors vs donors with sickle-cell disease, EPR; assay type: cell-based, human; settings: SCD n=19, Healthy n=6, p=1.26×10^−6
Method: as §1
Distinguishing between RBCs from healthy subjects and patients with sickle-cell disease. Hydroxylamine molecular probe, e.g., CMH, measurements can be used to differentiate between RBCs from healthy donors and donors with sickle-cell disease, as shown in FIG. 4. RBCs from screened healthy donors (Healthy, n=6) and donors that have sickle-cell disease (SCD, n=19) were tested with CMH. […] Error bars represent s.e.m.

RBCs [5] = assay: Complete blood count RBC parameters following CMH exposure; assay type: cell-based, human; settings: CMH 0.1, 0.3, 1.0, 3.0 and 10 mM, 10 minutes, ambient temperature, vs vehicle ddH2O
Method: (§3) Donor blood. Blood was obtained from healthy volunteers under informed consent. All human subject research was approved by the University of Maryland, Baltimore Institutional Review Board under Protocol #-HP-00092436.
(§4) CMH Incubation. Whole blood was centrifuged at 900 g/2500 rpm for 10 minutes to separate RBC from plasma/buffy coat. Plasma and buffy coat were removed, and RBCs were washed five times with 0.5 ml volumes of isotonic phosphate buffered saline containing 5 mM glucose. After each wash, supernatant and residual buffy coat was removed. After the 5th wash the RBC pellet was mixed with the preservative solution, CPDA-1 in an 85:15 ratio (150 μL CPDA-1 for a total volume of 1 mL). This step was performed to approximate the preparation of packed RBCs for refrigerator storage. CMH was diluted with double deionized H2O (ddH2O) to make stock solutions ranging from 400-4 mM. 10 μL of stock CMH solution or ddH2O was added to 390 μL of RBC/CPDA-1 suspensions, mixed gently but thoroughly and incubated at ambient temperature for 10 minutes. The concentrations tested were as follows: 0.1, 0.3, 1.0, 3.0 and 10 mM. This step was performed to approximate the preparation time needed for assaying superoxide in donor RBCs at the point of collection or in a blood bank setting. After 10 minutes of incubation, complete blood count, shear stress deformability, oxygen equilibrium (oxygen saturation and desaturation) was measured as 3 technical replicates for all samples. Fixation of RBCs was performed for scanning electron microscopy.
Total Blood cell count. Total blood cell count was quantified using ABX Pentra 60 C+ Hematology analyzer (HORIBA Instruments Inc., Kyoto, Japan). Briefly, 60 μL of whole blood was used for the analyses.

RBCs [6] = assay: Scanning electron microscopy of RBCs exposed to CMH; assay type: cell-based, human; settings: CMH 0.1, 0.3, 1.0, 3.0 and 10 mM, 10 minutes, ambient temperature, vs vehicle
Method: as §3
as §4, with “This step was performed to approximate the preparation time needed for assaying superoxide in donor RBCs at the point of collection or in a blood bank setting.” left out, “Fixation of RBCs was performed for scanning electron microscopy.” left out

RBCs [7] = assay: Shear stress ektacytometry of RBCs exposed to CMH; assay type: cell-based, human; settings: CMH 0.1, 0.3, 1.0, 3.0 and 10 mM; shear stress 5.33 Pa and 30 Pa; vs vehicle, P>0.05
Method: as §3
as §4, with “10 μL of stock CMH solution or ddH2O was added to 390 μL of RBC/CPDA-1 suspensions, mixed gently but thoroughly and incubated at ambient temperature for 10 minutes. The concentrations tested were as follows: 0.1, 0.3, 1.0, 3.0 and 10 mM. This step was performed to approximate the preparation time needed for assaying superoxide in donor RBCs at the point of collection or in a blood bank setting.” left out, “Fixation of RBCs was performed for scanning electron microscopy.” left out
Measurements of RBC deformability. RBC deformability was measured by ektacytometry, using the laser-assisted optical rotational cell analyzer (LORCA MaxSis, Mechatronics, Netherlands) at 37° C. […] RBC deformability was measured by applying 9 different shear stresses ([…]). […]

RBCs [8] = assay: Oxygen equilibrium (P50) of RBCs exposed to CMH; assay type: cell-based, human; settings: CMH up to 10 mM (10-fold the intended assay concentration)
Method: as §3
as §4, with “10 μL of stock CMH solution or ddH2O was added to 390 μL of RBC/CPDA-1 suspensions, mixed gently but thoroughly and incubated at ambient temperature for 10 minutes. The concentrations tested were as follows: 0.1, 0.3, 1.0, 3.0 and 10 mM. This step was performed to approximate the preparation time needed for assaying superoxide in donor RBCs at the point of collection or in a blood bank setting.” left out, “Fixation of RBCs was performed for scanning electron microscopy.” left out
Measurement of Oxygen equilibrium (p50). […] The P50 value was determined using an automated blood oxygen analyzer (Hemox, Model B, TCS Scientific) following the manufacturer's protocol. […]

RBC = settings: cited from earlier work

Row | RBC membrane/morphology changes by SEM (RBCs [6]) | RBC elongation index (RBCs [7]) | SMILES | reaction of CMH with O2^·− (CM· formation quantified by EPR) ([1]; XO 0.03 U/mL, hypoxanthine 0.5 mM, PBS with 1 mM DTPA) | production of CM· in presence of SOD ([1]; XO + hypoxanthine + SOD 5 μM) | generation of CM· on incubation with H2O2 ([2]; 1 mM CMH, 1 mM H2O2, PBS with 1 mM DTPA) | selectivity of CMH for O2^·− over H2O2 ([2]; 1 mM H2O2) | rate of CM· generation in B6 RBCs ([3]; B6 mouse RBCs, day 2 of storage, 1 mM CMH, slightly above buffer control CPDA-1) | rate of CM· generation in FVB RBCs ([3]; FVB mouse RBCs vs B6, day 2 of storage, 1 mM CMH) | mean rate of CMH to CM· oxidation, FVB versus B6 murine RBCs ([3]; days 1, 2, 4 and 8 of storage) | rate of CMH oxidation, normoxic vs hypoxic stored RBCs (human RBCs) | rate of CMH oxidation, SCD RBCs vs Healthy RBCs [4] | % hematocrit (RBCs [5]) | Mean corpuscular hemoglobin (RBCs [5]) | Mean corpuscular volume (RBCs [5]) | RBC count (RBCs [5]) | mean corpuscular hemoglobin concentration (RBCs [5]) | total hemoglobin (RBCs [5]) | oxygen equilibrium curves / P50 (hemoglobin allostery) (RBCs [8]) | membrane permeance (RBC) | mean [CM·] higher in RBCs from FVB mice than B6 ([3]; at the time of CMH addition, each day of measurement)
1 | no remarkable changes | do not change the elongation indices | COC(=O)C1CC(C)(C)N(O)C1(C)C (stereo not drawn) [CMH, 1-hydroxy-3-methoxycarbonyl-2,2,5,5-tetramethylpyrrolidine] | converts it to CM· | negligible production of CM· | negligible generation of CM· | high selectivity | low rate | much higher rate | 3 fold | much higher rate | much higher rates | no CMH concentration dependent differences | no CMH concentration dependent differences | no CMH concentration dependent differences | no CMH concentration dependent differences | no CMH concentration dependent differences | no CMH concentration dependent differences | does not impart aberrant hemoglobin allostery | membrane-permeant | –
2 | – | – | COC(=O)C1CC(C)(C)N([O])C1(C)C (stereo not drawn) [CM·] | – | – | – | – | – | – | – | – | – | – | – | – | – | – | – | – | membrane-permeant | ~9 µM
